Laboratory results reported in US9045505B2, “Nitric oxide donors” (University of Otago, priority 2006, dated 2015).

Key:
[1] = tested on: Jurkat cells; experiment: Respiration of Jurkat cells (O2 electrode); format: cell-based; conditions: 5 μM; for effect on respiration by Jurkat cells: 37° C.
Method: FIG. 10 is a series of traces and graphs showing the effect of MitoSNAP on respiration in cells. (a-d) Jurkat cells (55×10^6 cells) were incubated in PBS supplemented with 25 mM Hepes pH 7.2 (NaOH), 1 mM sodium pyruvate, 10 μM neocuproine and 100 μM DTPA in the stirred 2.5 ml chamber of an oxygen electrode at 37° C. with 5 μM MitoSNAP (a), MitoNAP (b), SNAP (c) or MitoSNAP and FCCP (500 nM) (d). Where indicated 5 μM OxyHb was added. Traces show typical experiments that were repeated at least three times. Sections of the 02 electrode trace where OxyHb was added for (a) and (b) have been expanded 4-fold in the vertical dimension to facilitate inspection. In all traces the dashed line indicates anaerobiosis. (e) Effect of MitoSNAP on O2 bioavailability in hypoxia. HeLa cells were incubated at 1% O2 concentration with 5% CO2 and the balance N2 for […] before the indicated treatments. Cellular pO2 values, measured by fluorescence quenching oximetry and expressed as mean±sd, are shown. (**p<0.001 compared to hypoxia alone and to MitoNAP treatments by ANOVA).
Cell culture. Cells were grown in medium supplemented with 10% fetal calf serum (FCS), penicillin (100 U.ml^−1) and streptomycin (100 μg.ml^−1) at 37° C. in a humidified atmosphere of 95% air/5% CO2. Jurkat cells were cultured in Roswell park memorial institute (RPMI) 1640 medium supplemented with 2 mM Glutamax and 25 mM Hepes. HeLa cells were grown in minimum essential eagle medium (MEM) containing 2 mM glutamine and non-essential amino acids and were grown to 100% confluence prior to use. […]
To evaluate the selective uptake of MitoSNAP by mitochondria within cells, the effect of MitoSNAP on respiration by Jurkat cells, a T lymphocyte cell line that grows in suspension, was measured using an O2 electrode (FIG. 10). […] Then the effects of a further 30 min incubation with MitoSNAP, MitoNAP or the mitochondrial inhibitor myxathiazol on the steady-state extracellular pO2 was assessed by fluorescence quenching oximetry (FIG. 10e).

[2] = tested on: rat liver mitochondria; experiment: Membrane potential-dependent uptake into isolated mitochondria (TPP-selective electrode); format: biochemical; conditions: energized with 10 mM succinate, reversed by FCCP
Method: FIG. 8 is a trace showing the uptake of MitoSNAP and MitoNAP by energized mitochondria measured using an ion-selective electrode. For (a) and (b) mitochondria (2 mg protein/ml) were incubated in KCl buffer supplemented with rotenone in a stirred 3 ml chamber thermostatted at 37° C. and shielded from ambient light. An electrode selective for the TPP cation was inserted and calibrated by five sequential 1 μM additions of MitoNAP (a) or MitoSNAP (b). Succinate (10 mM) was then added to energize the mitochondria, followed by the uncoupler FCCP (0.5 μM). Rapid uptake of MitoNAP by energized mitochondria was observed and this was reversed by abolishing the membrane potential with the uncoupler FCCP (a). Energised mitochondria also rapidly accumulated MitoSNAP (b). However, in contrast to MitoNAP, uncoupling apparently led to only partial release of the accumulated MitoSNAP (b). This apparent incomplete release of MitoSNAP on uncoupling is presumably because MitoSNAP is converted to MitoNAP within mitochondria and this generates a different response from the electrode.
Mitochondrial incubations were usually in KCl buffer (120 mM KCl, 10 mM HEPES, 1 mM EGTA, 100 μM N,N-bis(2-bis[carboxymethyl]aminoethyl) glycine (DTPA) and 10 μM neocuproine, pH 7.2) with 10 mM succinate and 4 μg/ml rotenone in the dark at 37° C., unless stated otherwise. An electrode selective for the TPP moiety of MitoSNAP and MitoNAP was made and used as described previously (Asin-Cayuela, J., Manas, A. R., James, A. M., Smith, R. A. & Murphy, M. P. Fine-tuning the hydrophobicity of a mitochondria-targeted antioxidant. FEBS Letts. 571, 9-16 (2004)). Respiration rates were measured in a Clark type O2 electrode (Rank Brothers, UK). To measure GSH and GSSG, mitochondria (1 mg protein/ml) were incubated with 0-10 μM MitoSNO1 or MitoNAP for 10 min, pelleted by centrifugation and the GSH and GSSG contents assessed by the recycling assay (Scarlett, J. L., Packer, M. A., Porteous, C. M. & Murphy, M. P. Alterations to glutathione and nicotinamide nucleotides during the mitochondrial permeability transition induced by peroxynitrite. Biochem. Pharmacol. 52, 1047-1055 (1996)). The measurement of exposed mitochondrial protein thiols is described below.
Rat liver mitochondria (1 mg protein/ml) in KCl buffer was incubated at 37° C. with 5 μM MitoSNO. 1 μM additions of MitoSNO were made sequentially before addition of 10 mM succinate. 200 nM FCCP was then added to uncouple the mitochondria. The concentrations of O2 and MitoSNO in solution were measured simultaneously using a Clark-type O2 electrode in combination with an ion-selective electrode for triphenylphosphonium cation (TPP^+). […] This can be seen in FIG. 3.
When succinate was added, the mitochondria started respiring and set up a Δψ, which caused a decrease in the MitoSNO concentration, as detected by the ion-selective electrode (FIG. 3). When the mitochondria were uncoupled by FCCP, a concomitant increase in the concentration of MitoSNO, or its derivatives, in the medium was detected by the ion-selective electrode. The amount of MitoSNO taken up into the mitochondria from the trace in FIG. 3 corresponds to ˜2.5 μM of the initial external concentration of 5 μM. Therefore 7.5 nmol MitoSNO have been taken up into 3 mg protein, and as the mitochondrial volume is ˜0.5 μl/mg protein (Brown, G. C. and Brand, M. D. Biochem J., 1985, 225, 399-405), the concentration of MitoSNO within mitochondria is ˜5 mM. This represents a 2000 fold concentration relative to the 2.5 μM present in the external medium, and is consistent with a Nernstian uptake of MitoSNO.

[3] = tested on: complex I; conditions: 10 μM
Method: (a) Effect of MitoSNAP on mitochondrial respiration. Heart mitochondria (1 mg protein/ml) were incubated in 1 ml KCl medium supplemented with 1 mM phosphate in an oxygen electrode with 5 mM glutamate and 5 mM malate, or succinate, and incubated with 10 μM MitoSNAP, 10 μM MitoNAP or carrier for 2 min (succinate) or 3 min (glutamate/malate), then 250 μM adenosine diphosphate (ADP) was added and the rate of respiration was measured. Respiration in the presence of MitoSNAP is expressed as a percentage of that with MitoNAP, and are means±sem from 3 separate mitochondrial preparations, each determined in triplicate; *p<0.05 by Student's paired t test. […] Bovine heart mitochondrial membranes (0.25 mg protein/ml) were incubated in 1 ml KCl medium in an O2 electrode at 37° C., and incubated with 75 μM MitoSNAP or MitoNAP, or ethanol carrier for 5 min in the presence or absence of rotenone, then 1 mM NADH or 10 mM succinate was added and the rate of respiration was measured. Data are expressed as respiration in the presence of MitoSNAP or MitoNAP as a percentage of the appropriate controls and are means±range of two separate experiments, each determined in triplicate. […] Then protein SNOs were labelled by maleimide-Cy3 and intact mitochondrial respiratory complexes were separated by BN-PAGE which was then scanned for Cy3 fluorescence. […]

Row | SMILES | effect on respiration by Jurkat cells [1] | uptake by isolated mitochondria [2] | time for which a low O2 concentration was maintained ([1]; low O2 concentrations) | inhibition of respiration relative to MitoNAP ([3]; glutamate/malate) | effect on respiration ([3]; succinate)
1 | CC(=O)NC(C(=O)O)C(C)(C)SN=O (racemic) [SNAP, S-nitroso-N-acetyl-DL-penicillamine, reference compound] | had no effect on respiration |  |  |  | 
2 | CC(=O)NC(C(=O)NCCCCC[P+](c1ccccc1)(c1ccccc1)c1ccccc1)C(C)(C)SN=O.CS(=O)(=O)[O-] (stereo not drawn) [MitoSNAP, [5-(2-acetylamino-3-methyl-3-nitrosothio-butyrylamino)-penty1]-triphenylphosphonium methanesulfonate] | respiration rate decreased and approached zero | significant Δψ-dependent uptake | at least 30 min | about 30% | very little effect
